This is an account of results in patent US20260284208A1, “SYSTEM” (Oxford University Innovation Limited, priority 2023, published 2026).

Common to all, as to assay type: cell-based
Test [1] addresses wild-type IKZF1/IKZF3 ZF degron sequence (WT) fused to eGFP (Homo sapiens, UniProt Q96SW2+Q9UKT9). Briefly: GFP degradation flow cytometry assay (GFP:mCherry ratio), WT ZF-eGFP. The conditions noted are these: for percent degradation of WT ZF-GFP at 10 µM: 18 h, Jurkat, flow cytometry concentration curve; for degradation ability against the WT ZF sequence: flow cytometry assay. Here is the method: FIG. 2. A. A plasmid containing a ZF degron fused to GFP in the same gene as mCherry. Jurkats that have been lentivirally transduced with this plasmid will express ZF-GFP and mCherry at a consistent ratio. B Addition of an IMID such as pomalidomide will induce GFP degradation via the degron's functionality. C Incubation with an IMID produces a degradation curve.
(§1) Jurkat cells were added to 96 well U-bottom assay plates (Falcon) at 1×10^5 cells per well and treated with compounds for 18 hours at 37° C. and 5% CO2. Cells were stained with 1 μg/mL DAPI (ThermoFisher) and acquired on a Cytoflex S (Beckman Coulter). Data was analysed using FlowJo 10.8.1 (BD).
To test these compounds, we used a flow cytometry assay (FIG. 2) employing an Jurkat cells—an immortalised human blood cell line—that had been stably transduced with a plasmid using a lentiviral vector. This plasmid contained a gene for a 60 amino acid ZF region derived from IKZF3 fused to eGFP, separated from mCherry by an internal ribosomal entry site (IRES). This meant that these cells would express ZF-GFP and mCherry in consistent relative amounts, so under normal conditions the ratio of GFP:mCherry would remain the same regardless of overall expression levels. However, upon incubation with an IMID, ZF-GFP would be selectively degraded, altering this ratio and thus providing an easily measurable proxy for level of ZF degradation.
We carried out three biological replicates of this assay for each IMID analogue with a 0.1% DMSO control and six concentrations of IMID (1 nM, 10 nM, 100 nM, 1 μM, 10 μM and 100 μM) for each compound. This yielded a degradation curve for each compound, from which a pDC50 value could be derived, indicating how potent a degrader each of our compound were relative to thalidomide, lenalidomide and pomalidomide.

For test [2], the target named is Q147A mutated ZF (ANQS) fused to eGFP (Homo sapiens, UniProt Q96SW2+Q9UKT9, Q147A). Briefly: GFP degradation flow cytometry assay, Q147A mutant ZF-eGFP. The conditions noted are these: for orthogonality index value (from pDC50 Q147A and pDC50 WT): Q147A vs WT ZF, compounds with Q147A Dmax >=0.4 dismissed, 1080 min; for degradation against Q147A relative to WT: flow cytometry, pDC50 comparison. Here is the method: as §1
Sequence of Q147A mutated ZF (ANQS) fused to eGFP (Q9UKT9 130-189 Q147A): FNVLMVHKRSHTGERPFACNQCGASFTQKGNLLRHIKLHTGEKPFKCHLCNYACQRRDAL
Sequence of Q147A mutated ZF (ANQS) fused to eGFP (Q96SW2 whole entry, the tested form may be a part): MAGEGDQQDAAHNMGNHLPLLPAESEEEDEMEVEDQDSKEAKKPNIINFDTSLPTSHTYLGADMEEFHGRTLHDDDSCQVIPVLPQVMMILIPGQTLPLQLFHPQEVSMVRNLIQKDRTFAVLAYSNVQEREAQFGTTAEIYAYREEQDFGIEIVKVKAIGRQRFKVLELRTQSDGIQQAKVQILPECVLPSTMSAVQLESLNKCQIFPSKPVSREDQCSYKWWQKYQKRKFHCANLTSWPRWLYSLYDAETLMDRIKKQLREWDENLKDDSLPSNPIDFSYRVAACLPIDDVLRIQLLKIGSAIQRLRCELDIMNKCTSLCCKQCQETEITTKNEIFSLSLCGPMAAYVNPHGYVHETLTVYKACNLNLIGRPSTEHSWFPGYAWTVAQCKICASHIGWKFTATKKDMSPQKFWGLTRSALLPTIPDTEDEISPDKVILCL
To probe the potential for orthogonality in a bump-and-hole context, the same assay was carried out again on all compounds, but this time with a Q147A mutated ZF.
The pDC50 values derived from this screen were used along with the pDC50 values from the WT screen to assign an orthogonality index value to every compound according the following equation: […]
(In flow cytometry, cells or beads pass a laser one at a time.)

For test [3], the target named is endogenous IKZF3 in Jurkat cells (Homo sapiens, UniProt Q96SW2+Q9UKT9). Briefly: Immunoblotting of endogenous IKZF3. The conditions noted are these: for endogenous IKZF3 level relative to DMSO control (Western blot): 1 μM or 10 μM, untransduced Jurkat cells; for ability to degrade endogenous IKZF3 (Western blot): even at 10 uM. Here is the method:
(§2) Jurkat cells were added to T25 flasks (Falcon) at 2×10^6 cells per flask and were incubated with compounds for 18 hours at 37° C. and 5% CO2. Cells were lysed in buffer containing 9 M urea (Sigma), 75 mM Tris-HCl (Sigma), 0.15 M β-mercaptoethanol (Merck) and 10× diluted protease inhibitor cocktail (Merck). Cells lysates were sonicated for 10 seconds 3 times, centrifuged at 13000 rpm for 10 minutes at 4° C. and the supernatants were transferred into fresh tubes. Protein concentrations were measured using a Pierce BCA Protein Assay Kit (Thermo). Proteins were boiled in Laemmli sample buffer (Bio-Rad) for 5 minutes at 100° C. and separated by SDS-PAGE (7.5% Mini-PROTEAN TGX gels, Bio-Rad) and compared to the PageRuler Prestained Protein Ladder (Thermo). Semi-dry blotting was done on a Trans-Blot Turbo Transfer System (Bio-Rad) with the Trans-Blot Turbo RTA Mini 0.2 μm PVDF Transfer Kit (Bio-Rad) using the default mixed molecular weight mode. Membranes were blocked in 5% non-fat dry milk (Bio Rad) in TBS-T. Primary IKZF3 (D1C1E, Cell Signaling Technology Europe), eGFP (F56-6A1.2.3, Thermo) and vinculin (E1E9V, Cell Signaling Technology Europe and sc-25336, Santa Cruz Biotechnologies) antibodies were diluted 1000×, 500× and 50× respectively in 5% non-fat dry milk in TBS-T. Membranes were incubated with primary antibodies overnight at 4° C., washed with TBS-T 3 times, incubated with HRP conjugated secondary antibodies (Promega) for 1 hour at room temperature, washed with TBS-T 3 times and imaged with Clarity Western ECL substrate (Bio-Rad). Membranes were scanned with a Bio-Rad ChemiDoc XRS+ Imaging System (Bio-Rad) and signal intensities were quantified using Image Lab software (Bio Rad). Band densitometry was assessed, normalized to vinculin bands, and reported as percentage of the DMSO control lane.
(In western blotting, separated proteins are transferred to a membrane and probed.)

Test [4] deals with AEVK-GFP in transduced Jurkat cells (Homo sapiens, UniProt Q96SW2+Q9UKT9, N149E/Q147A/Q150V/S154K). Briefly: Immunoblotting of AEVK ZF-eGFP. The conditions noted are these: 10 μM; Jurkats transduced with AEVK-GFP. Here is the method:
as §2, with “Membranes were blocked in 5% non-fat dry milk (Bio Rad) in TBS-T. Primary IKZF3 (D1C1E, Cell Signaling Technology Europe), eGFP (F56-6A1.2.3, Thermo) and vinculin (E1E9V, Cell Signaling Technology Europe and sc-25336, Santa Cruz Biotechnologies) antibodies were diluted 1000×, 500× and 50× respectively in 5% non-fat dry milk in TBS-T. Membranes were incubated with primary antibodies overnight at 4° C., washed with TBS-T 3 times, incubated with HRP conjugated secondary antibodies (Promega) for 1 hour at room temperature, washed with TBS-T 3 times and imaged with Clarity Western ECL substrate (Bio-Rad).” left out

Sequence of wild-type IKZF1/IKZF3 ZF degron sequence (WT) fused to eGFP (Q9UKT9 130-189): as the sequence (Q9UKT9 130-189 Q147A) above, with A18Q counted along it
Sequence of wild-type IKZF1/IKZF3 ZF degron sequence (WT) fused to eGFP (Q96SW2 whole entry, the tested form may be a part): as the sequence (Q96SW2 whole entry, the tested form may be a part) above
Sequence of endogenous IKZF3 in Jurkat cells (Q9UKT9 whole entry): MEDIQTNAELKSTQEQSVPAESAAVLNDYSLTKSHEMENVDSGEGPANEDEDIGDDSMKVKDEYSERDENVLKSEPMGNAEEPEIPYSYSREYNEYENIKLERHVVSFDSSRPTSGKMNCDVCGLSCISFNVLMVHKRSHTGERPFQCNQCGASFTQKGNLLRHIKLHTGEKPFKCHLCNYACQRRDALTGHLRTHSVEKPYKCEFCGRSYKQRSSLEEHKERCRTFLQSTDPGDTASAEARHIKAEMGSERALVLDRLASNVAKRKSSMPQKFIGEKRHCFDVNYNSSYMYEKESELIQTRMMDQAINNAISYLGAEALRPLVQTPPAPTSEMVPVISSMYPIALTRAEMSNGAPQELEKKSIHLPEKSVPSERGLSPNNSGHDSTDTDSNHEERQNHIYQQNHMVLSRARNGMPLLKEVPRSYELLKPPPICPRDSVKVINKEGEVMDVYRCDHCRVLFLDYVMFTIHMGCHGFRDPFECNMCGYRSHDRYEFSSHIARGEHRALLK
Sequence of endogenous IKZF3 in Jurkat cells (Q96SW2 whole entry): as the sequence (Q96SW2 whole entry, the tested form may be a part) above
Sequence of AEVK-GFP in transduced Jurkat cells (Q9UKT9 130-189 Q147A/N149E/Q150V/S154K): as the sequence (Q9UKT9 130-189 Q147A) above, with N20E, Q21V, S25K counted along it
Sequence of AEVK-GFP in transduced Jurkat cells (Q96SW2 whole entry): as the sequence (Q96SW2 whole entry, the tested form may be a part) above

For `CC(C)(C)c1ccc2c(c1)C(=O)N(C1CCC(=O)NC1=O)C2=O` (centres unmarked) [A63, 5-(tert-butyl)-2-(2,6-dioxopiperidin-3-yl)isoindoline-1,3-dione], in test [1], the percent degradation of WT ZF-GFP at 10 µM is 60 to 70% and the “degradation ability against the WT ZF sequence” value is “some degradation ability”. For the same compound, in test [2], the “orthogonality index value (from pDC50 Q147A and pDC50 WT)” value is over 10; the “degradation against Q147A relative to WT” value was “improved degradation”. Further, in test [3], the “endogenous IKZF3 level relative to DMSO control (Western blot)” value is “unaffected” and the “ability to degrade endogenous IKZF3 (Western blot)” value is recorded as “neither A63 nor B08 possess ability to degrade endogenous IKZF3”. The “level of endogenous IKZF3 (Western blot)” value in test [3] (10 μM, Jurkats transduced with AEVK-GFP) is recorded as “remains unaffected”. The “degradation of AEVK-GFP (Western blot)” value in test [4] is given as “full degradation”.

`CN1CCN(c2ccc3c(c2)C(=O)N(C2CCC(=O)NC2=O)C3=O)CC1` (centres unmarked) [B08, 2-(2,6-dioxopiperidin-3-yl)-5-(4-methylpiperazin-1-yl)isoindoline-1,3-dione]: in test [1], the percent degradation of WT ZF-GFP at 10 µM was 60 to 70% and the “degradation ability against the WT ZF sequence” value is reported as “some degradation ability”. Moreover, in test [2], the “orthogonality index value (from pDC50 Q147A and pDC50 WT)” value is recorded as over 10; the “degradation against Q147A relative to WT” value is on record as “improved degradation”. Further, in test [3], the “endogenous IKZF3 level relative to DMSO control (Western blot)” value was “unaffected” and the “ability to degrade endogenous IKZF3 (Western blot)” value is “neither A63 nor B08 possess ability to degrade endogenous IKZF3”.
